# In patent publication US10662359B2, “Heat transfer fluids and methods of using same” (3M INNOVATIVE PROPERTIES COMPANY, priority 2017, dated 2020):
# System: rats
# Assay: 4 hour acute inhalation toxicity in rats
# Type: in vivo
# Details: rats dosed at 10,000 or 619 ppm vol/vol in air for 4 hours, 14 day post-dose monitoring; LC-50 estimated, interpreted as highest exposure level tested
# Method: The 4 hour acute inhalation toxicity of Example 3 and CE2 in rats was determined by dosing animals at 10,000 or 619 ppm vol/vol in air (per Table 4) for 4 hours followed by 14 day post-dose monitoring. Based on the animal test results and the vapor concentration of the test compound, the LC-50 values were estimated. The NOEL (No Effect Level) value of CE3 was obtained from du Pont de Nemours trade literature. The 4 hr inhalation LC-50 value for CE4 was obtained from Solvay MSDS.
smiles,measurement,value
"FC(=C(C(F)(F)F)C(F)(F)C(F)(F)C(F)(F)F)C(F)(C(F)(F)F)C(F)(F)F [Example 3, 1,1,1,2,3,5,5,6,6,7,7,7-dodecafluoro-2,4-bis(trifluoromethyl)hept-3-ene]",LC-50 (4 hr Inhalation in Rats),">10,000 ppmv"
